# Measured values: patent US9511016B2, “Topical composition for treating pain” (EpicentRx, Inc., priority 2007, dated 2016)
# “And” between values parts separate entries of the source, which are not always exact repeats. Identical values can stand only once.
# Columns and labels:
# Human Patient with Pain = assay: Topical treatment of human patients with pain: pain level (x/10), mobility, duration; format: in vivo; conditions: for Observation: mobility: Table 5 patient 10, neck pain 5/10; for Mobility / stiffness after application: patient and treated site of the example or table row cited
# Human Patient = assay: Systemic effects in human patients after application: breathing, peak expiratory flow, appetite, alertness; format: in vivo; conditions: patient of the example or table row cited
# Text: Pluronic gel 20% with lecithin soya/isopropyl myristate was applied to stomach and abdominal wall.
# [1] = Ex.27, clonidine then nitropaste
# [2] = Table 7: compression fracture of vertebra
# [3] = Table 7: neck pain and stiffness
# [4] = Table 7: patellofemoral syndrome
# [5] = Table 7: sacroiliac strain, bilateral sacroilitis
# [6] = Table 7: sacroiliac strain, bilateral sacroilitis, listed as Albuterol inhaler
# [7] = Table 7: back, leg, joint, hip, toe, knee pain
compound,measurement,setting,value
Tween 80,Observation: mobility,Human Patient with Pain,More mobility
same,"Systemic effects noted (alertness, appetite, breathing, congestion, sweating, secretions)",Human Patient,improvement in breathing
Clc1cccc(Cl)c1N=C1NCCN1 [Clonidine],Pain level,"Human Patient with Pain; Ex.11 right arm neuroma with phantom limb, initial 4/10, in series",pain completely disappeared
same,Pain level,"Human Patient with Pain; Ex.17 left rotator cuff impingement and bursitis, initial printed 5110",Pain disappeared
same,Pain level,"Human Patient with Pain; Ex.20 ischial gluteal bursitis, initial 9/10, clonidine then nitropaste",5/10
same,Pain level,"Human Patient with Pain; Ex.20 right knee osteoarthritis, from 9/10, clonidine then nitropaste",8/10
same,Pain level,"Human Patient with Pain; Ex.20 right wrist carpal tunnel, initial 9/10, nitropaste then clonidine paste",3/10
same,Pain level,"Human Patient with Pain; Ex.20 trochanteric bursitis, initial 9/10, clonidine then nitropaste",5/10
same,Pain level,"Human Patient with Pain; Ex.21 bilateral sacroiliac strain, initial 9/10, in series",5/10
same,Pain level,"Human Patient with Pain; Ex.22 bilateral rotator cuff tear, initial printed 8.5410",no effect
same,Pain level,"Human Patient with Pain; Ex.23 thoracalgia, initial 8/10",no effect
same,Pain level,"Human Patient with Pain; Ex.24 left patellofemoral syndrome, initial 7/10, in series",3/10
same,Pain level,"Human Patient with Pain; Ex.25 left trochanteric bursitis, initial 7/10",disappeared
same,Pain level,"Human Patient with Pain; Ex.25 right thumb osteoarthritis, initial 2/10, in series",stayed the same
same,Pain level,"Human Patient with Pain; Ex.26 L3 vertebral compression fracture, initial 6/10, in series",4/10
same,Pain level,"Human Patient with Pain; Ex.27 neck stiffness and pain, radiculopathy, initial about 6/10",pain disappeared
same,Head rotation to left,Human Patient with Pain; [1],70 degrees
same,Head rotation to right,Human Patient with Pain; [1],75 degrees
same,Pain level,"Human Patient with Pain; Ex.28 left knee, initial 6/10, nitrobid then clonidine",pain also disappeared
same,Pain level,"Human Patient with Pain; Ex.28 right knee osteoarthritis/patellofemoral syndrome, initial 6/10, clonidine then nitrobid",3/10
same,Pain level,"Human Patient with Pain; Ex.30 diabetic lower extremity neuropathy, initial 7/10, in series",5/10
same,"Pain Level, CD","Human Patient with Pain; Table 1 part II: after clonidine paste (first step), listed as CD",3/10 and 7/10 and 6/10
same,% Change in Pain level,Human Patient with Pain; [2],33%
same,EFFECT ON PAIN LEVEL/% change,Human Patient with Pain; [2],"From 6/10 to 4/10, No"
same,"% Change in Pain level, total over successive treatments (marked *)",Human Patient with Pain; Table 7: migraine and tension headache,*100%
same,EFFECT ON PAIN LEVEL/% change,"Human Patient with Pain; Table 7: migraine, tension headache, cluster headache, headache",0/10
same,% Change in Pain level,Human Patient with Pain; [3],100%
same,EFFECT ON PAIN LEVEL/% change,Human Patient with Pain; [3],From 6/10 to 0/10
same,"% Change in Pain level, total over successive treatments (marked *)",Human Patient with Pain; Table 7: osteoarthritis,*100%;
same,EFFECT ON PAIN LEVEL/% change,Human Patient with Pain; Table 7: osteoarthritis,No change and From 6/10 to 3/10 and 6/10 to 0/10
same,% Change in Pain level,Human Patient with Pain; [4],40%
same,"% Change in Pain level, total over successive treatments (marked *)",Human Patient with Pain; [4],57%
same,EFFECT ON PAIN LEVEL/% change,Human Patient with Pain; [4],From 5/10 to 3/10
same,EFFECT ON PAIN LEVEL/% change,"Human Patient with Pain; Table 7: rotator cuff tendinopathy, rotator cuff tear, shoulder pain, listed as Clonidine paste",From 3/10 to 0/10
same,% Change in Pain level,"Human Patient with Pain; Table 7: rotator cuff tendinopathy, tear, shoulder pain, listed as Clonidine paste",100%
same,EFFECT ON PAIN LEVEL/% change,Human Patient with Pain; Table 7: trochanteric bursitis,From 7/10 to 0/10
same,Mobility / stiffness after application,Human Patient with Pain,improved flexibility
same,Mobility / stiffness after application,Human Patient with Pain; listed as Clonidine paste,improved mobility and range of motion
same,Duration of pain relief,Human Patient with Pain; patient of the example cited,6 h
same,Persistence of pain relief at follow-up,Human Patient with Pain; patient of the example cited,A day later patient reported that their knee pain was still reduced
same,Time to decrease of pain,Human Patient with Pain; patient of the example cited,5 min
same,Time to decrease of pain,"Human Patient with Pain; patient of the example cited, listed as clonidine",≤ 10 min
CC(C)NCC(O)COc1ccc(CC(N)=O)cc1 (centres unmarked) [Atenolol],Pain level,"Human Patient with Pain; Ex.10 thoracalgia, left side, initial 5/10, in series",pain completely disappeared
same,Pain level,"Human Patient with Pain; Ex.10 thoracalgia, right side, initial 5/10, in series",2/10
same,Pain level,"Human Patient with Pain; Ex.4 hammer toes, halux valgus and rigiditus, initial 7/10, in series",no effect
same,Pain level,"Human Patient with Pain; Ex.5 hip, trochanteric bursitis, initial 8/10, in series",6/10
same,Pain level,"Human Patient with Pain; Ex.5 knee osteoarthritis, initial 8/10",5/10
same,Pain level,"Human Patient with Pain; Ex.8 hip, trochanteric bursitis, initial 8/10, in series",no change
same,% Change in Pain level,Human Patient with Pain; Table 7: osteoarthritis,37.5%
same,EFFECT ON PAIN LEVEL/% change,Human Patient with Pain; Table 7: osteoarthritis,From 8/10 to 5/10
same,% Change in Pain level,Human Patient with Pain; [5],0%
same,EFFECT ON PAIN LEVEL/% change,Human Patient with Pain; [5],No change
same,% Change in Pain level,Human Patient with Pain; Table 7: trochanteric bursitis,25%
same,EFFECT ON PAIN LEVEL/% change,Human Patient with Pain; Table 7: trochanteric bursitis,From 8/10 to 6/10
"CC(C)(C)NCC(O)c1ccc(O)c(CO)c1 (centres unmarked) [albuterol inhaler, albuterol]",Pain level,"Human Patient with Pain; Ex.34 V(a) left heel (no gel), initial 8/10, inhalers in series",6/10
same,Pain level,"Human Patient with Pain; Ex.34 V(a) left heel, albuterol inhaler given again (from 5/10)",3/10
same,Pain level,"Human Patient with Pain; Ex.34 V(a) right heel (PLO gel applied here), initial 8/10, then inhalers in series",4/10
same,Pain level,"Human Patient with Pain; Ex.34 V(a) right heel, albuterol inhaler given again (from 3/10)",2/10
same,Pain level,"Human Patient with Pain; Ex.34 V(c) lower back pain over coccyx, initial 8/10, in series",no change in their back pain
same,Pain level,"Human Patient with Pain; Ex.34 V(c) neck pain and stiffness, initial 5/10, in series",2/10
same,Pain level,"Human Patient with Pain; Ex.34 V(e) sacroiliac strain, initial 8.5/10, in series",4/10
same,Pain level,"Human Patient with Pain; Ex.34 V(f) midback pain, initial 7/10",without any change
same,Pain level,"Human Patient with Pain; Ex.34 V(h) possible lower lumbar compression fracture, initial 5/10, in series",6/10
same,EFFECT ON PAIN LEVEL/% change,Human Patient with Pain; [3],2/10
same,"% Change in Pain level, total over successive treatments (marked *)",Human Patient with Pain; [5],53% to
same,% Change in Pain level,Human Patient with Pain; [6],20%
same,EFFECT ON PAIN LEVEL/% change,Human Patient with Pain; [6],From 5/10 to 4/10
same,% Change in Pain level,"Human Patient with Pain; Table 7: sacroiliac strain, bilateral sacroilitis, listed as albuterol",0%
COc1cc(CNC(=O)CCCC/C=C/C(C)C)ccc1O [capsaicin],Overall analgesic effect (general statement),Human Patient with Pain; across patients,did not have much of an effect except in a few patients
"OCC(O)CO [GP, Glycerin]",Observation (pain),"Human Patient with Pain; Table 4, components marked +, complaint and initial level in the same row, plus anhydrous lanolin",Pain disappeared
same,Observation (pain),Human Patient with Pain; Table 5,10 No effect on knee
same,Observation (pain),"Human Patient with Pain; Table 5, listed as Glycerin pure",1/10
same,% Change in Pain level,Human Patient with Pain; [7],0%
same,EFFECT ON PAIN LEVEL/% change,Human Patient with Pain; [7],"No Change, then from 8/10"
same,% Change in Pain level,Human Patient with Pain; Table 7: osteoarthritis,16.7%
same,% Change in Pain level,"Human Patient with Pain; Table 7: tarsal tunnel, carpal tunnel syndrome, wrist pain",0%
CC(O)CO (centres unmarked) [Propylene glycol],Observation (pain),Human Patient with Pain; Table 5,No effect
Triton x100,Observation: mobility,Human Patient with Pain,Slight increase in mobility
"CCCCCCCCCCCCOS(=O)(=O)[O-].[Na+] [SDS 20%, Sodium dodecyl sulfate]","Systemic effects noted (alertness, appetite, breathing, congestion, sweating, secretions)","Human Patient; listed as SDS, sulfate",improvement in breathing
Tween 20,Observation: mobility,Human Patient with Pain,Increased mobility
